Measurements as given in ChEMBL document CHEMBL1148173, “Three New Onnamide Congeners from the Okinawan Marine Sponge Theonella Sp” (J Nat Prod, 1993).
In brackets after ≈: the same amount, converted by molar mass.

Tests used:
L1210 = experiment: Cytotoxicity against mouse L1210 cells; assay type: functional, cell-based
KB = experiment: Cytotoxicity against human KB cells; assay type: functional, cell-based

Row | SMILES | IC50 (L1210) | IC50 (KB)
1 | C=C1C[C@](OC)([C@H](O)C(=O)N[C@H]2OCO[C@H]3[C@@H]2O[C@H](C[C@H](O)CCCCC/C=C/C=C/C(=O)N[C@@H](CCCNC(=N)N)C(=O)O)C(C)(C)[C@@H]3OC)O[C@H](C)[C@@H]1C [6,7-DIHYDRO-ONNAMIDE A] | 4.6 ng/mL (≈ 5.78 nM) | 5 ng/mL (≈ 6.28 nM)
2 | C=C1C[C@](OC)([C@H](O)C(=O)N[C@H]2OCO[C@H]3[C@@H]2O[C@H](CC(=O)CCCCC/C=C/C=C/C(=O)N[C@@H](CCCNC(=N)N)C(=O)O)C(C)(C)[C@@H]3OC)O[C@H](C)[C@@H]1C [6,7-DIHYDRO-11-OXO-ONNAMIDE A] | 16 ng/mL (≈ 20.2 nM) | 23 ng/mL (≈ 29 nM)
3 | C=C1C[C@](OC)([C@H](O)C(=O)N[C@H]2OCO[C@H]3[C@@H]2O[C@H](CC(=O)CCC/C=C/C=C/C=C/C(=O)N[C@@H](CCCNC(=N)N)C(=O)O)C(C)(C)[C@@H]3OC)O[C@H](C)[C@@H]1C [11-OXO-ONNAMIDE A] | 9.2 ng/mL (≈ 11.6 nM) | 13 ng/mL (≈ 16.4 nM)
4 | C=C1C[C@](OC)([C@H](O)C(=O)N[C@H]2OCO[C@H]3[C@@H]2O[C@H](C[C@H](O)CCC/C=C/C=C/C=C/C(=O)N[C@@H](CCCNC(=N)N)C(=O)O)C(C)(C)[C@@H]3OC)O[C@H](C)[C@@H]1C [ONNAMIDE A] | 2 ng/mL (≈ 2.52 nM) | 3.6 ng/mL (≈ 4.53 nM)
5 | C=C1C[C@](OC)([C@H](O)C(=O)N[C@H]2OCO[C@H]3[C@@H]2O[C@H](C[C@H](O)CCC/C=C/C=C\C=C\C(=O)N[C@@H](CCCNC(=N)N)C(=O)O)C(C)(C)[C@@H]3OC)O[C@H](C)[C@@H]1C [4Z-ONNAMIDE A] | 1.5 ng/mL (≈ 1.89 nM) | 2.9 ng/mL (≈ 3.65 nM)
